Laboratory results reported in PubChem BioAssay (NCI).
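Five compound concentrations were applied to cells in 96-well plates for 48 hours; endpoints were derived by simple linear interpolation of the resulting dose-response curve. GI50 = concentration required for 50% inhibition of growth. TGI: concentration producing complete growth inhibition.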

Key:
Assay in all cases: NCI tumour cell line growth inhibition, 48 h; in the data active = GI50 below about 0.43 µM; inactive = the rest
[1] = test system: CAKI-1 renal
[2] = test system: SK-OV-3 ovarian
[3] = test system: NCI-H522 lung
[4] = test system: HS 578T breast
[5] = test system: K-562 leukemia
[6] = test system: BT-549 breast
[7] = test system: SNB-19 CNS
[8] = test system: SR leukemia
[9] = test system: HOP-92 NSCLC
[10] = test system: NCI-H226 lung
[11] = test system: A549 NSCLC
[12] = test system: HCC-2998 colon
[13] = test system: MALME-3M melanoma
[14] = test system: T-47D breast
[15] = test system: SK-MEL-28 melanoma
[16] = test system: CCRF-CEM leukemia
[17] = test system: MCF7 breast
[18] = test system: U251 CNS
[19] = test system: KM12 colon
[20] = test system: SNB-75 CNS
[21] = test system: IGROV1 ovarian
[22] = test system: HCT-116 colon
[23] = test system: COLO 205 colon
[24] = test system: UACC-62 melanoma
[25] = test system: NCI-H460 lung
[26] = test system: HCT-15 colon
[27] = test system: PC-3 prostate
[28] = test system: SK-MEL-5 melanoma
[29] = test system: SN12C renal
[30] = test system: OVCAR-3 ovarian
[31] = test system: OVCAR-4 ovarian
[32] = test system: HOP-62 NSCLC
[33] = test system: RPMI-8226 leukemia
[34] = test system: RXF 393 renal
[35] = test system: OVCAR-8 ovarian
[36] = test system: SF-268 CNS
[37] = test system: DU-145 prostate
[38] = test system: SF-539 CNS
[39] = test system: ACHN renal
[40] = test system: MDA-MB-231 breast
[41] = test system: 786-0 renal
[42] = test system: MDA-MB-435
[43] = test system: NCI-H23 lung
[44] = test system: TK-10 renal
[45] = test system: NCI/ADR-RES ovarian
[46] = test system: MOLT-4 leukemia
[47] = test system: OVCAR-5 ovarian
[48] = test system: UO-31 renal
[49] = test system: SK-MEL-2 melanoma
[50] = test system: M14 melanoma
[51] = test system: EKVX NSCLC
[52] = test system: HL-60(TB) leukemia
[53] = test system: SW-620 colon
[54] = test system: HT29 colon
[55] = test system: UACC-257 melanoma
[56] = test system: SF-295 CNS
[57] = test system: LOX IMVI melanoma

O=S(=O)(Nc1cc(F)cc(F)c1)c1ccc(-c2cnc(C3CC3)o2)cc1
3.98 µM: TGI [20]
15.6 µM: TGI [30]
52.9 µM: TGI [55]
6.79 µM: TGI [34]
21.4 µM: TGI [25]
8.6 µM: TGI [4]
13.8 µM: TGI [52]
90.9 µM: TGI [31]
inactive: GI50 [1] 1.19 µM | GI50 [2] 3.8 µM | GI50 [3] 2.03 µM | GI50 [4] 1.83 µM | GI50 [5] 0.582 µM | GI50 [6] 3.33 µM | GI50 [7] 3.73 µM | GI50 [8] 0.513 µM | GI50 [9] 1.68 µM | GI50 [10] 3.88 µM | GI50 [11] 3.8 µM | GI50 [12] 5.62 µM | GI50 [13] 2.98 µM | GI50 [14] 3.08 µM | GI50 [15] 13.3 µM | GI50 [16] 2.44 µM | GI50 [17] 1.45 µM | GI50 [18] 3.28 µM | GI50 [19] 0.869 µM | GI50 [20] 1.05 µM | GI50 [21] 2.01 µM | GI50 [22] 3.04 µM | GI50 [23] 2.08 µM | GI50 [24] 0.94 µM | GI50 [25] 2.64 µM | GI50 [26] 0.702 µM | GI50 [27] 1.99 µM | GI50 [28] 3.27 µM | GI50 [29] 4.87 µM | GI50 [30] 1.57 µM | GI50 [31] 5.93 µM | GI50 [32] 2.6 µM | GI50 [33] 3.44 µM | GI50 [34] 1.66 µM | GI50 [35] 4.31 µM | GI50 [36] 6.73 µM | GI50 [37] 4.11 µM | GI50 [38] 2.52 µM | GI50 [39] 4.92 µM | GI50 [40] 6.46 µM | GI50 [41] 5.05 µM | GI50 [43] 4.55 µM | GI50 [44] 8.65 µM | GI50 [45] 1.7 µM | GI50 [46] 3.73 µM | GI50 [47] 6.12 µM | GI50 [48] 4.69 µM | GI50 [49] 4.51 µM | GI50 [50] 1.85 µM | GI50 [51] 5.31 µM | GI50 [52] 2.12 µM | GI50 [53] 1.12 µM | GI50 [54] 1.76 µM | GI50 [55] 12.3 µM | GI50 [56] 1.29 µM | GI50 [57] 4.34 µM
11.7 µM: TGI [56]
79.9 µM: TGI [14]
2.09 µM: TGI [42]
20 µM: TGI [24]
41.6 µM: TGI [49]
47.9 µM: TGI [26]
68.1 µM: TGI [45]
59.6 µM: TGI [29]
44.2 µM: TGI [12]
48.8 µM: TGI [36]
12.3 µM: TGI [23]
42 µM: TGI [2]
38.4 µM: TGI [1]
33.6 µM: TGI [32]
11.4 µM: TGI [9]
12.9 µM: TGI [54]
77.1 µM: TGI [43]
active: GI50 [42] 0.305 µM
68.7 µM: TGI [44]
13.1 µM: TGI [28]
41.7 µM: TGI [40]
46.7 µM: TGI [6]
53 µM: TGI [10]
66.2 µM: TGI [33]
70.1 µM: TGI [13]
14.6 µM: TGI [38]
32 µM: TGI [19]
40.4 µM: TGI [3]
> 100 µM: TGI [5] | TGI [7] | TGI [8] | TGI [11] | TGI [15] | TGI [16] | TGI [17] | TGI [18] | TGI [21] | TGI [22] | TGI [27] | TGI [35] | TGI [37] | TGI [39] | TGI [41] | TGI [46] | TGI [47] | TGI [48] | TGI [50] | TGI [51] | TGI [53] | TGI [57]
